Results as given in the NIST ThermoML archive (doi:10.1016/j.jct.2005.10.002).
Values joined by “and” are separate entries in the source; they are usually repeats but may differ in a detail not shown here. Equal entries are not always repeated.

Settings: Liquid; for mass density: 101.33 kPa

CCC(C)(O)CC [3-methyl-3-pentanol]
Settings	mass density
278.15 K	840.5 kg/m3 and 841 kg/m3
279.15 K	839.7 kg/m3 and 840.2 kg/m3
280.15 K	838.9 kg/m3 and 839.4 kg/m3
281.15 K	838.1 kg/m3 and 838.5 kg/m3
282.15 K	837.2 kg/m3 and 837.7 kg/m3
283.15 K	836.4 kg/m3 and 836.8 kg/m3
284.15 K	835.6 kg/m3 and 836 kg/m3
285.15 K	834.8 kg/m3 and 835.2 kg/m3
286.15 K	833.9 kg/m3 and 834.4 kg/m3
287.15 K	833.5 kg/m3 and 833.1 kg/m3
288.15 K	832.7 kg/m3 and 832.3 kg/m3
289.15 K	831.9 kg/m3 and 831.4 kg/m3
290.15 K	831 kg/m3 and 830.6 kg/m3
291.15 K	830.1 kg/m3 and 829.7 kg/m3
292.15 K	829.3 kg/m3 and 828.9 kg/m3
293.15 K	828.5 kg/m3 and 828 kg/m3
294.15 K	827.6 kg/m3 and 827.1 kg/m3
295.15 K	826.7 kg/m3 and 826.3 kg/m3
296.15 K	825.9 kg/m3 and 825.4 kg/m3
297.15 K	825 kg/m3 and 824.5 kg/m3
298.15 K	824.1 kg/m3 and 823.6 kg/m3
299.15 K	823.2 kg/m3 and 822.8 kg/m3
300.15 K	822.3 kg/m3 and 821.9 kg/m3
301.15 K	821.5 kg/m3 and 821 kg/m3
302.15 K	820.6 kg/m3 and 820.1 kg/m3
303.15 K	819.7 kg/m3 and 819.2 kg/m3
304.15 K	818.8 kg/m3 and 818.3 kg/m3
305.15 K	817.9 kg/m3 and 817.4 kg/m3
306.15 K	816.9 kg/m3 and 816.5 kg/m3
307.15 K	816 kg/m3 and 815.5 kg/m3
308.15 K	815.1 kg/m3 and 814.6 kg/m3
309.15 K	814.2 kg/m3 and 813.7 kg/m3
310.15 K	813.3 kg/m3 and 812.8 kg/m3
311.15 K	812.3 kg/m3 and 811.8 kg/m3
312.15 K	811.4 kg/m3 and 810.9 kg/m3
313.15 K	810.5 kg/m3 and 810 kg/m3
314.15 K	809.5 kg/m3 and 809 kg/m3
315.15 K	808.6 kg/m3 and 808.1 kg/m3
316.15 K	807.6 kg/m3 and 807.1 kg/m3
317.15 K	806.7 kg/m3 and 806.2 kg/m3
318.15 K	805.7 kg/m3 and 805.2 kg/m3
319.15 K	804.8 kg/m3 and 804.3 kg/m3
320.15 K	803.8 kg/m3 and 803.3 kg/m3
321.15 K	802.8 kg/m3 and 802.3 kg/m3
322.15 K	801.9 kg/m3 and 801.3 kg/m3
323.15 K	800.9 kg/m3 and 800.4 kg/m3
324.15 K	799.9 kg/m3 and 799.4 kg/m3
325.15 K	798.9 kg/m3 and 798.4 kg/m3
326.15 K	798 kg/m3 and 797.4 kg/m3
327.15 K	797 kg/m3 and 796.4 kg/m3
328.15 K	796 kg/m3 and 795.4 kg/m3
329.15 K	795 kg/m3 and 794.4 kg/m3
330.15 K	794 kg/m3 and 793.4 kg/m3
331.15 K	793 kg/m3 and 792.4 kg/m3
332.15 K	792 kg/m3 and 791.4 kg/m3
333.15 K	791 kg/m3 and 790.4 kg/m3
334.15 K	789.9 kg/m3 and 789.4 kg/m3
335.15 K	788.9 kg/m3 and 788.4 kg/m3
336.15 K	787.9 kg/m3 and 787.4 kg/m3
337.15 K	786.9 kg/m3 and 786.4 kg/m3
338.15 K	785.9 kg/m3 and 785.3 kg/m3
339.15 K	784.3 kg/m3
340.15 K	783.3 kg/m3
341.15 K	782.3 kg/m3
342.15 K	781.2 kg/m3
343.15 K	780.2 kg/m3
344.15 K	779.1 kg/m3
345.15 K	778.1 kg/m3
346.15 K	777.1 kg/m3
347.15 K	776 kg/m3
348.15 K	775 kg/m3
349.15 K	773.9 kg/m3
350.15 K	772.9 kg/m3
351.15 K	771.8 kg/m3
352.15 K	770.7 kg/m3
353.15 K	769.7 kg/m3
354.15 K	768.6 kg/m3
355.15 K	767.6 kg/m3
356.15 K	766.5 kg/m3
357.15 K	765.4 kg/m3
358.15 K	764.4 kg/m3
359.15 K	763.3 kg/m3
360.15 K	762.2 kg/m3
361.15 K	761.1 kg/m3
362.15 K	760.1 kg/m3
363.15 K	759 kg/m3
364.15 K	757.9 kg/m3
365.15 K	756.8 kg/m3
366.15 K	755.7 kg/m3
367.15 K	754.6 kg/m3
368.15 K	753.5 kg/m3

speed of sound [m/s]
Settings	303.15 K	313.15 K	323.15 K	333.15 K	343.15 K	353.15 K	363.15 K	373.15 K
100 kPa	1230.7	1192.7	1154.4	1115.7	1077.3	1037.7	998.2	957.7
10000 kPa	1290.1	1254.9	1219.2	1183.6	1148	1111.6	1076.2	1039.5
20000 kPa	1344.9	1311.8	1278.7	1245	1211.1	1177.7	1144.6	1110.9
30000 kPa	1396.1	1365	1332.4	1300.4	1268.5	1236.9	1205.4	1174
40000 kPa	1443.3	1412.6	1382.1	1351.9	1321.7	1291.4	1261.4	1231.1
50000 kPa	1487.1	1457.9	1428.9	1399.7	1370.5	1342.1	1312.6	1283.7
60000 kPa	1529.7	1500.4	1472.8	1444.4	1416	1387.8	1359.8	1332
70000 kPa	1568.8	1540.7	1513.6	1486.1	1458.4	1431.2	1404.8	1377.5
80000 kPa	1606.2	1578.9	1552.8	1525.6	1499.4	1472.7	1446.9	1420.3
90000 kPa	1641.7	1615	1589.9	1563.8	1537.9	1511.9	1486.5	1461.1
100000 kPa	1675.9	1650	1624.9	1599.9	1574.6	1549.3	1524.4	1499.3

CCC(O)CC [3-pentanol]
speed of sound [m/s]
Settings	303.15 K	313.15 K	323.15 K	333.15 K	343.15 K	353.15 K	363.15 K	373.15 K
100 kPa	1234.7	1194.7	1155.2	1115.9	1076.8	1036.7	997.3	957.2
10000 kPa	1294	1257	1219.2	1182.2	1146.9	1110.4	1075.3	1038.9
20000 kPa	1348.2	1313	1277.9	1243.1	1209.7	1176.2	1143.2	1109.6
30000 kPa	1397.7	1364.7	1331	1298.2	1266.6	1234.1	1203.5	1171.5
40000 kPa	1443.6	1411.9	1380.2	1348.6	1318.2	1287.8	1258.2	1228.3
50000 kPa	1486.9	1456	1425.8	1395.9	1366.4	1337.3	1308.3	1280.1
60000 kPa	1526	1498.1	1468.5	1439.4	1411.1	1383.1	1355.1	1328.2
70000 kPa	1564.7	1537.4	1508.9	1480.7	1453.1	1425.8	1399.6	1373.1
80000 kPa	1600.5	1574.5	1547.2	1519.8	1492.9	1466.6	1440.8	1415
90000 kPa	1636.4	1610.2	1583.6	1556.9	1530.7	1505	1479.7	1454.6
100000 kPa	1668.2	1644.1	1618.6	1592.2	1566.6	1541.4	1516.9	1492.5
